In the supplement of paper PMC11061612:

Key:
[1] = tested on: BHT-101 (Thyroid Gland Carcinoma); assay: Bliss excess, mean over the matrix (fraction); higher = more synergy
Summary of the method: (§1)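 Cell lines in DMEM/F12 or RPMI with 10% FBS were plated in 1536-well plates, held 24 hours at 37°C, 5% CO2, then given two-drug dose matrices for 72 hours (DMSO typically 0.2%). Viability was read by CellTiter-Glo 2.0 luminescence and scaled as inhibition from 0 (vehicle wells) to 1 (blank wells). Combination Emax is the second-highest inhibition in the matrix; Bliss excess is observed combination effect minus expected EA + EB − EA·EB, EA and EB being single-agent effects.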

[2] = tested on: C-33-A (Cervical Carcinoma); assay: as above
Summary of the method: as §1

ES6 (Ewing's Sarcoma) = assay: as above
Summary of the method: as §1

KALS-1 (Glioblastoma) = assay: as above
Summary of the method: as §1

[3] = tested on: KP-4 (Pancreatic Carcinoma); assay: as above
Summary of the method: as §1

[4] = tested on: LS-1034 (Colorectal Carcinoma); assay: as above
Summary of the method: as §1

[5] = tested on: MOLT-13 (T-Lymphoblastic Leukemia); assay: as above
Summary of the method: as §1

[6] = tested on: MONO-MAC-6 (Acute Myeloid Leukemia); assay: as above
Summary of the method: as §1

[7] = tested on: NCI-H1963 (Small Cell Lung Carcinoma); assay: as above
Summary of the method: as §1

[8] = tested on: NCI-H596 (Other Solid Carcinomas); assay: as above
Summary of the method: as §1

[9] = tested on: OVCAR-3 (Ovarian Carcinoma); assay: as above
Summary of the method: as §1

[10] = tested on: SAT (Head and Neck Carcinoma); assay: as above
Summary of the method: as §1

[11] = tested on: SCC-4 (Oral Cavity Carcinoma); assay: as above
Summary of the method: as §1

[12] = tested on: SNU-407 (Colorectal Carcinoma); assay: as above
Summary of the method: as §1

[13] = tested on: SiHa (Cervical Carcinoma); assay: as above
Summary of the method: as §1

[14] = tested on: T84 (Colorectal Carcinoma); assay: as above
Summary of the method: as §1

[15] = tested on: TUR (Acute Myeloid Leukemia); assay: as above
Summary of the method: as §1

[16] = tested on: IA-LM (Non-Small Cell Lung Carcinoma); assay: combination Emax (second highest fraction inhibited in the dose matrix, 72 h); higher = more inhibition; extreme values may be limits of the assay
Summary of the method: as §1

IST-MEL1 (Melanoma) = assay: as above
Summary of the method: as §1

[17] = tested on: Raji (Burkitt's Lymphoma); assay: as above
Summary of the method: as §1
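Wherever Bliss excess, mean over the matrix is given: after 72 h of two-drug dosing.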

SMILES	Bliss excess [1]	Bliss excess [2]	Bliss excess (ES6 (Ewing's Sarcoma))	Bliss excess (KALS-1 (Glioblastoma))	Bliss excess [3]	Bliss excess [4]	Bliss excess [5]	Bliss excess [6]	Bliss excess [7]	Bliss excess [8]	Bliss excess [9]	Bliss excess [10]	Bliss excess [11]	Bliss excess [12]	Bliss excess [13]	Bliss excess [14]	Bliss excess [15]	combination Emax [16]	combination Emax (IST-MEL1 (Melanoma))	combination Emax [17]
COc1cc2ncnc(Nc3ccc(F)c(Cl)c3)c2cc1OCCCN1CCOCC1 [Gefitinib] + CC(C)n1c(=O)n(C)c2cnc3cc(F)c(-c4ccc(OCCCN5CCCCC5)nc4)cc3c21 [AZD1390] (first compound max 10 µM, 7x7, partner max 0.3 µM)	-0.035	-0.0656	-0.0574	-0.0471	-0.073	-0.0368	-0.0246	-0.0545	-0.0526	-0.0474	-0.056	-0.0522	-0.059	-0.0783	-0.0732	-0.035	-0.0185	0.202	0.0683	0.162
Cc1c2c(nn1C)CSCc1cc(n(C)n1)CSc1cc(c3ccccc3c1)OCCCc1c(C(=O)O)n(C)c3c-2c(Cl)ccc13 [AZD5991] + Cc1cc2ncnn2cc1Nc1ncc2c(n1)n(C1CCOCC1)c(=O)n2C [AZD7648] (first compound max 1 µM, 7x7, partner max 10 µM)	-0.0308	-0.0586	-0.0745	-0.008	-0.0261	0.0092	-0.0085	0.016	-0.0169	0.0056	-0.0311	-0.0599	-0.0269	-0.0369	-0.0234	-0.0431	-0.0488	0.295	0.291	0.728
NC1(C(=O)N[C@@H](CCO)c2ccc(Cl)cc2)CCN(c2ncnc3[nH]ccc23)CC1 [Capivasertib] + CC(=O)c1c(C)c2cnc(Nc3ccc(N4CCNCC4)cn3)nc2n(C2CCCC2)c1=O [Palbociclib] (first compound max 10 µM, 7x7, partner max 10 µM)	-0.0022	-0.042	-0.0055	-0.0379	0.029	-0.0157	0.0311	0.0034	-0.0584	-0.0856	-0.0396	-0.0203	-0.007	-0.0267	-0.022	-0.0175	0.0128	0.206	0.48	0.491
COc1cccc(OCCCN)c1-c1cc(Nc2cnc(C#N)cn2)n[nH]1 [Prexasertib] + Cc1cc2ncnn2cc1Nc1ncc2c(n1)n(C1CCOCC1)c(=O)n2C [AZD7648] (first compound max 1 µM, 7x7, partner max 10 µM)	0.0399	-0.0283	0.0027	-0.0363	0.0031	-0.0229	0.004	0.0406	-0.0075	-0.026	-0.0213	-0.0294	-0.0267	0.0252	-0.0174	-0.0904	-0.0005	0.489	0.772	0.97
CN(C)CCCOc1ccc(-c2ccc3ncc4c(c3c2)n(C2CCOCC2)c(=O)n4C)cn1 [AZD0156] + C[C@@H]1COCCN1C2=NC(=NC(=C2)C3(CC3)[S@](=N)(=O)C)C4=C5C=CNC5=NC=C4 [AZD6738] (first compound max 1 µM, 7x7, partner max 10 µM)	0.0222	0.0157	-0.0076	-0.0032	-0.0286	0.0161	0.0472	-0.0253	0.0086	-0.009	0.0353	-0.0116	-0.0071	-0.0322	-0.0456	0.0182	0.0261	0.304	0.745	0.87
CN(CCO)CC[C@H](CSc1ccccc1)Nc1ccc(S(=O)(=O)NC(=O)c2ccc(N3CCC([C@@H](O)c4ccccc4-c4ccc(Cl)cc4)CC3)cc2)cc1S(=O)(=O)C(F)(F)F [AZD4320] + CCN(CCO)CCCOc1ccc2c(Nc3cc(CC(=O)Nc4cccc(F)c4)[nH]n3)ncnc2c1 [AZD2811] (first compound max 1 µM, 7x7, partner max 1 µM)	-0.0112	-0.0283	-0.0229	0.0804	-0.021	-0.0337	-0.0204	0.145	0.0054	-0.0631	-0.005	0.0112	0.0936	-0.102	-0.0219	-0.0305	0.0393	0.505	0.407	0.219
Cc1c2c(nn1C)CSCc1cc(n(C)n1)CSc1cc(c3ccccc3c1)OCCCc1c(C(=O)O)n(C)c3c-2c(Cl)ccc13 [AZD5991] + Cn1cnc2c(F)c(Nc3ccc(Br)cc3Cl)c(C(=O)NOCCO)cc21 [Selumetinib] (first compound max 1 µM, 7x7, partner max 3 µM)	0.0253	0.0077	-0.039	-0.0897	-0.0165	0.0513	0.0203	0.0117	0.0518	-0.0098	0.0353	0.0193	0.0478	0.0342	0.0015	0.0438	0.0408	0.24	0.395	0.756
